Results from US7247734B2 (Vernalis (Cambridge) Limited, priority 2001, dated 2007).

What was measured:
[1] = system: HSP70 in HCT116 cells; test: Cell-based ELISA for HSP70 expression; set-up: species or system human; details: for % increase in HSP70 (Normalised Europium Counts compared to DMSO controls): HCT116, 10 μM compound
Text: Cell-based ELISA methods (see, e.g., Stockwell et al., 1999; Versteeg et al., 2000) offer several advantages for evaluating the pharmacodynamic effects of novel mechanism-based inhibitors and may be the method of choice for comparing inhibitors that are identified during the iterative process of lead identification and optimisation. The technique can be used to rapidly rank the effectiveness of compounds as well as to investigate the molecular mechanisms of their action. The increased sample throughput possible with ELISA means that compounds can be simultaneously studied in multiple replicates at different doses and exposure times. […] The assays are carried out directly on cells grown and treated in microtitre plates, thereby removing the necessity for preparing cell lysates. ELISA techniques can in theory be applied to any cellular protein or post-translational modification for which an antibody is available and results are at least semi-quantitative.
Chemicals are of the highest purity commercially available. • (1) Human colon tumour cell lines (e.g., HCT116 and HT29 from American Tissue Culture Collection, ATCC) grown in Dulbecco's modified Eagle's medium (DMEM) (CSSD, Institute of Cancer Research, London, UK) supplemented with […] glucose, 10% foetal bovine serum (FBS), 200 mM L-glutamine, and 5 ml non-essential amino acids in a humidified atmosphere of 5% CO2 at 37° C. • (2) 96 well Falcon clear microtitre tissue culture plates (BD Labware, Hospital Management and Supplies, Ltd., Northampton, UK). • (3) DMSO diluted in dH2O (8%). • (4) HSP90 inhibitors at required concentration dissolved in DMSO. • (5) Fixing solution (0.25% glutaraldehyde, 3% paraformaldehyde and 0.25% Triton-X 100) (all from Sigma Aldrich Ltd, Poole, UK). • (6) Blocking solution (5% dried milk (Marvel) in PBS) prepared daily. • (7) Anti HSP70 monoclonal antibody (SPA 810, Bioquote, York, UK). • (8) DELFIA® wash buffer, enhancement solution, assay buffer and Europium labelled anti-mouse IgG (1244–1330) (PerkinElmer Life Sciences, Milton Keynes, UK). • (9) BCA protein assay reagents (Perbio Science UK Ltd., Chester, UK). Method
Incubate at 37° for 30 min. • (6) Wash plates twice in PBS using an automated washer (Wellwash 5000 ten plate stacker-washer or Wellwash Ascent single plate washer, Thermo Labsystems, Basingstoke, UK). • (7) Block the plates by addition of blocking solution (100 μl) and incubate for 30 min. • (8) Add 100 μl primary antibody diluted to 0.95 μg/ml in PBS to each well and incubate plate for 1.5 h. Wash plates once with DELFIA® wash solution. • (9) Add 100 μl Europium labelled anti-mouse IgG diluted in DELFIA® assay buffer to 75 ng/ml and incubate for 1 hour. Wash plates once with DELFIA® wash solution as before. • (10) Add 100 μl DELFIA® enhancement solution to each well. • (11) Measure the fluorescence (615 nm) in Victor 2 1420 multilabel counter (Perkin Elmer Life Sciences, Milton Keynes, UK) using time-resolved measurement mode. • (12) Wash plates once with PBS and measure protein concentration by the addition of 200 μl BCA reagent to each well, shake for 1–2 min and incubate for 30 mins at 37° C. Read absorption at 570 nm. • (13) Express ELISA results by normalising to protein in the well (Eu counts (cpm) divided by OD@ 570 nm). Compare the effect of HSP90 inhibitors on HSP70 expression with DMSO treated controls. Comments • (1) Cells plated into 96 well plates are incubated in a plastic box to reduce evaporation from the outside wells. […]

[2] = system: HCT116 cells; test: Cellular protein by BCA assay after compound exposure (ELISA plates); type: cell-based, human; details: for Cellular Protein (% DMSO controls): HCT116, 10 μM compound
Procedure: Incubate at 37° for 30 min. • (6) Wash plates twice in PBS using an automated washer (Wellwash 5000 ten plate stacker-washer or Wellwash Ascent single plate washer, Thermo Labsystems, Basingstoke, UK). • (7) Block the plates by addition of blocking solution (100 μl) and incubate for 30 min. • (8) Add 100 μl primary antibody diluted to 0.95 μg/ml in PBS to each well and incubate plate for 1.5 h. Wash plates once with DELFIA® wash solution. • (9) Add 100 μl Europium labelled anti-mouse IgG diluted in DELFIA® assay buffer to 75 ng/ml and incubate for 1 hour. Wash plates once with DELFIA® wash solution as before. • (10) Add 100 μl DELFIA® enhancement solution to each well. • (11) Measure the fluorescence (615 nm) in Victor 2 1420 multilabel counter (Perkin Elmer Life Sciences, Milton Keynes, UK) using time-resolved measurement mode. • (12) Wash plates once with PBS and measure protein concentration by the addition of 200 μl BCA reagent to each well, shake for 1–2 min and incubate for 30 mins at 37° C. Read absorption at 570 nm. • (13) Express ELISA results by normalising to protein in the well (Eu counts (cpm) divided by OD@ 570 nm). Compare the effect of HSP90 inhibitors on HSP70 expression with DMSO treated controls. Comments • (1) Cells plated into 96 well plates are incubated in a plastic box to reduce evaporation from the outside wells. In addition, ELISA incubation steps are carried out in a 37° C. laboratory incubator and in a moist environment e.g., plastic box lined with damp tissue paper. • (2) All additions to the microtitre plate can be achieved using a multichannel pipette or for larger numbers of plates an automated dispenser such as a Multidrop (Thermo Labsytems, Basingstoke, UK). • (3) For convenience, if the effects of compounds are being studied at several time points the ELISA can be carried out in batches, plates being stored (in a container) at 4° C. following the fixation step. In this case the plates are washed only once following fixation and again immediately before the first ELISA step (step 6 above). In addition all the plates can be stored for subsequent protein estimation. • (4) Reproducibility of both the measured Europium counts and the protein measurements was between 10–15% (CV). • (5) DELFIA® reagents (see, e.g., Hemmila and Webb, 1997) have been routinely used in cell-based ELISAs. This endpoint provides high sensitivity and the time-resolved measurements reduce interference from non-specific fluorescence. However, it is also possible to use a horse radish peroxidase second antibody conjugate and either a calorimetric (e.g., tetramethylbenzidine) or chemiluminescent reagent (e.g., ECL reagent (Amersham Pharmacia Biotech, Little Chalfont, Bucks, UK) for endpoint measurement. • (6) It is recommended that a blank consisting of second-antibody only (i.e., no first antibody) together with an appropriate first antibody control (e.g., isotype matched IgG) are included in assays during the process of optimising reagent concentrations. Growth Inhibition Assay
The effect of various compounds of the present invention on the expression of the molecular marker HSP70 was determined using the cell-based ELISA and a specific monoclonal antibody to HSP70 in HCT116 cells, as described above. Cellular protein following compound exposure was determined using BCA assay as described in the method.

Row | Compound | % increase in HSP70 (Normalised Europium Counts compared to DMSO controls) ([1]; (48 h)) [%] | % increase in HSP70 (Normalised Europium Counts compared to DMSO controls) ([1]; (time not given)) [%] | Cellular Protein (% DMSO controls) ([2]; (48 h)) [%] | Cellular Protein (% DMSO controls) ([2]; (time not given)) [%] | HSP70 induction ([1]; HCT116, 10 μM, 48 h) | cellular protein measured by BCA, reduction of DMSO controls ([2]; HCT116, 10 μM)
1 | Cc1[nH]nc(-c2ccc(O)cc2O)c1-c1ccc2c(c1)OCCO2 [CCT018157] | 103 | 105 | 91.3 | 21.2 | – | –
2 | CCc1cc(-c2n[nH]c(C)c2-c2ccc3c(c2)OCCO3)c(O)cc1O [CCT018159, 4-[4-(2,3-Dihydro-benzo[1,4]dioxin-6-yl)-5-methyl-1H-pyrazol-3-yl]-6-ethyl-benzene-1,3-diol] | 278 | 158 | 50.0 | 20.8 | up to 2.8 fold | 50–80%
